Experimental data: ChEMBL document CHEMBL1154399, “Induction of voriconazole metabolism by rifampin in a patient with acute myeloid leukemia: importance of interdisciplinary communication to prevent treatment errors with complex medications” (Antimicrob Agents Chemother, 2007)

Columns and labels:
Assay type in all cases: ADME, organism-based
Homo sapiens [1] = experiment: Induction of voriconazole metabolism in po dosed […] infection patient assessed as increase in voriconazole N-oxide metabolite levels after 30 days; conditions: in vivo, 720 h
Homo sapiens [2] = experiment: Effect on voriconazole metabolism in po dosed […] infection patient assessed as decrease in voriconazole exposure levels after 30 days; parameters: scale not given: the % may be the effect or the level left; conditions: in vivo, 720 h
Homo sapiens [3] = experiment: Induction of voriconazole metabolism in po dosed […] infection patient assessed as increase in dihydroxyvoriconazole levels after 30 days; conditions: in vivo, 720 h
Homo sapiens [4] = experiment: Induction of voriconazole metabolism in po dosed […] infection patient assessed as increase in hydroxyvoriconazole levels after 30 days; conditions: in vivo, 720 h
[5] = AUC (0 to infinity) in […] infection patient at 400 mg, po administered daily; parameters: dose 400 mg, route oral, time infinity; conditions: human, plasma
[6] = Cmax in […] infection patient at 400 mg, po administered daily after 36 days of drug therapy and 30 days of rifampin coadministration; parameters: dose 400 mg, route oral; conditions: human, in vivo
[7] = Cmax in […] infection patient at 400 mg, po administered daily; parameters: dose 400 mg, route oral; conditions: human, in vivo
[8] = AUC (0 to infinity) in […] infection patient at 400 mg, po administered daily after 36 days of drug therapy and 30 days of rifampin coadministration; parameters: dose 400 mg, route oral, time infinity; conditions: human, plasma

Row | fold change (FC) (Homo sapiens [1]) | Activity (Homo sapiens [2]) [%] | fold change (FC) (Homo sapiens [3]) | fold change (FC) (Homo sapiens [4]) | SMILES | AUC(0-inf) [5] [ng·h/mL] | Cmax [6] [ng/mL] | Cmax [7] [ng/mL] | AUC(0-inf) [8] [ng·h/mL]
1 | 45 | 99 | 422 | 178 | CO[C@H]1/C=C/O[C@@]2(C)Oc3c(C)c(O)c4c(O)c(c(/C=N/N5CCN(C)CC5)c(O)c4c3C2=O)NC(=O)/C(C)=C\C=C\[C@H](C)[C@H](O)[C@@H](C)[C@@H](O)[C@@H](C)[C@H](OC(C)=O)[C@@H]1C [RIFAMPIN] | – | – | – | –
2 | – | – | – | – | C[C@@H](c1ncncc1F)[C@](O)(Cn1cncn1)c1ccc(F)cc1F [VORICONAZOLE] | 27400 | 38 | 3920 | 145
